The source of these data is paper PMC8474119, “Discovery and SAR Evolution of Pyrazole Azabicyclo[3.2.1]octane Sulfonamides as a Novel Class of Non-Covalent N-Acylethanolamine-Hydrolyzing Acid Amidase (NAAA) Inhibitors for Oral Administration” (Journal of Medicinal Chemistry, 2021).

Data set [1] concerns the target T1, h-NAAA (Homo sapiens, UniProt Q02083).
T1 construct: made in house; host or cells: HEK-293 cells stably overexpressing human NAAA; enzyme-enriched (lysosomal) lysate
T1 sequence (Q02083 29-125 limits assumed): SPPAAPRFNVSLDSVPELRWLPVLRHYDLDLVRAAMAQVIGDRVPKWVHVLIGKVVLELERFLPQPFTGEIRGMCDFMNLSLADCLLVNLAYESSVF
T1 sequence (Q02083 126-359 limits assumed): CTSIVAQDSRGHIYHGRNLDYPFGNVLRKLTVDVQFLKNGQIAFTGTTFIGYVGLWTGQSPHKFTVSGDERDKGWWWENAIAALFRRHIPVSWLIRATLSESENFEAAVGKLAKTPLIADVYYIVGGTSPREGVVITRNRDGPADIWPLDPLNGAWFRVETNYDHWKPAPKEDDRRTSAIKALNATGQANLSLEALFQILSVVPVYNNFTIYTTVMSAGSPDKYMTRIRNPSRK
In words: Fluorogenic human-NAAA assay (h-NAAA, fluo.). In kind it is biochemical. Conditions: for LipE: LipE = pIC50 – c Log P (h-NAAA); for pIC50: Table S1; for pIC50 / IC50: h-NAAA (fluo.); for IC50: mean ± SD (n ≥ 3), n.a.: not active @50 μM (<10% inhibition). On the procedure:
Human recombinant proteins were obtained from HEK-293 stable overexpressing human NAAA, AC, and FAAH-1 cell lines, respectively. Cells were grown in Dulbecco’s modified Eagle medium (DMEM) containing 10% FBS, 1% glutamine, 1 mM sodium pyruvate, and 500 μg/mL geneticin (G418). To obtain a high-density cell proliferation, h-NAAA-HEK-293 cells were grown in BelloCell-500 bottle, a compact bioreactor. On the contrary, h-AC and h-FAAH-1-HEK-293 cells were grown in 150 mm dishes and scraped off with cold PBS 1× pH 7.4 at 80% confluence. Cell pellets were collected and stored at −80 °C until protein preparation.
HEK-293 cells stably transfected with the human NAAA or human AC coding sequences were used as the enzyme source. Cells were suspended in 20 mM Tris-HCl (pH 7.4) with 0.32 M sucrose, sonicated, and centrifuged at 800g for 30 min at 4 °C. Supernatants were then centrifuged at 12,000g for 30 min at 4 °C. Pellets were resuspended in PBS buffer (pH 7.4) and subjected to three freeze-thaw cycles at −80 °C. The suspension was finally centrifuged at 105,000g for 1 h at 4 °C, supernatants were collected, protein concentration was measured, and samples were aliquoted and stored at −80 °C until use.
The assay was run in 96-well microplates (Black OptiPlate-96 F; PerkinElmer, Massachusetts, USA), in a total reaction volume of 200 μL. h-NAAA protein preparation (4 μg) was preincubated for 30 min with various concentrations of test compounds or vehicle control (DMSO 5%) in 100 mM citrate/phosphate buffer (pH 4.5) containing 3.0 mM DTT, 0.1% NP40, 0.05% BSA, and 150 mM NaCl. The background (no activity) samples were prepared using assay buffer without h-NAAA and DMSO (5%). N-(4-methyl-2-oxo-chromen-7-yl)-hexadecanamide (PAMCA)[60] was used as a substrate (2 μM) and the reaction was carried out for 50 min at 37 °C. Fluorescence was measured with EnVision 2014 Multilabel Reader (PerkinElmer, Massachusetts, USA) using an excitation wavelength of 355 nm and an emission of 460 nm. IC50 values were calculated by non-linear regression analysis of log[concentration]/response curves generated with mean replicate values using a four-parameter Hill equation curve fitting with GraphPad Prism 5 (GraphPad Software Inc., CA, USA).

A short description of data set [2]: Plasma stability assay, mouse plasma. In kind it is in vitro ADME. Particulars: for % compound remaining at last time-point, plasma: 2.0 μM, 120 min; for half-life at 2 μM: n ≥ 3, read-out: plasma t1/2. On the procedure: 10 mM DMSO stock solution of test compound (39 or 50) was diluted 50-fold with DMSO/H2O (1:1) and incubated at 37 °C for 2 h with mouse or rat plasma added with 5% DMSO (preheated at 37 °C for 10 min). The final compound’s concentration was 2.0 μM. At each time point (0, 5, 15, 30, 60, and 120 min), 50 μL of incubation mixture was diluted with 150 μL cold CH3CN spiked with 200 nM of warfarin, as the internal standard, followed by centrifugation at 3.270g for 20 min. The supernatant was further diluted with H2O (1:1) and analyzed by LC–MS/MS on a Waters ACQUITY UPLC-MS TQD system consisting of a triple quadrupole detector (TQD) mass spectrometer equipped with an electrospray ionization interface and a photodiode array eλ detector (PDA) from Waters Inc. (Milford, MA, USA). Electrospray ionization was applied in positive mode. Compound-dependent parameters as MRM transitions and collision energy were developed for each compound. The analyses were run on an ACQUITY UPLC BEH C18 (50 × 2.1 mm ID, particle size 1.7 μm) with a VanGuard BEH C18 precolumn (5 × 2.1 mm ID, particle size 1.7 μm) at 40 °C, using H2O + 0.1% HCOOH (A) and CH3CN + 0.1% HCOOH (B) as the mobile phase. The percentage of the test compound remaining at each time point relative to t = 0 was calculated by the response factor on the basis of the internal standard peak area. The percentage of test compound versus time was plotted and fitted by GraphPad Prism (GraphPad Software, Version 5 for Windows, CA, USA, www.graphpad.com) to estimate the compound’s half-life (t1/2), which was reported as mean value along with the standard deviation (n = 3).

What is called pIC50 is −log10 of the IC50, conventionally taken in molar units. The low end stands for a large IC50, the high end for a small IC50. By IC50 is commonly meant the concentration needed to halve the response being measured. Take `CCCCc1ccc(O[C@H]2C[C@H]3CC[C@@H](C2)N3S(=O)(=O)c2c(C)n[nH]c2C)cc1` [Compound 39, (1R,3r,5S)-3-(4-Butylphenoxy)-8-((3,5-dimethyl-1H-pyrazol-4-yl)sulfonyl)-8-azabicyclo[3.2.1]octane]: in data set [1], the LipE is 3.84, the pIC50 is given as 7.64 and it took 0.023 ± 0.004 µM to reach half-maximal inhibition (IC50). Moreover, in data set [2], the “% compound remaining at last time-point, plasma” value turned out to be 93% and the half-life at 2 μM was > 2 h.

In data set [1], `CCOCc1cnc(O[C@H]2C[C@H]3CC[C@@H](C2)N3S(=O)(=O)c2c(C)n[nH]c2C)cn1` [Compound 50, (1R,3r,5S)-8-((3,5-Dimethyl-1H-pyrazol-4-yl)sulfonyl)-3-((5-(ethoxymethyl)pyrazin-2-yl)oxy)-8-azabicyclo[3.2.1]octane] showed a LipE of 6.83, a pIC50 of 7.38 and an IC50 of 0.042 ± 0.002 µM. Moreover, in data set [2], the “% compound remaining at last time-point, plasma” value worked out at 95% and the half-life at 2 μM was > 2 h.
